Experimental data from article PMC8116058, “De novo macrocyclic peptides dissect energy coupling of a heterodimeric ABC transporter by multimode allosteric inhibition” (eLife, 2021).
Positions of bridges follow the written chain, without caps; N, C: chain ends. Non-standard residues stand in square brackets, D forms with d. Residues, ends and D or L forms follow the SMILES beside them. *: point of attachment. 5FAM = O=C1OC2(c3ccc(O)cc3Oc3cc(O)ccc32)c2ccc(C(=O)*)cc21; βAla = NCCC(=O)O

Experiments:
wild-type TmrAB = experiment: Nucleotide occlusion, wild-type TmrAB; type: biochemical, Thermus thermophilus; conditions: 5 min 45°C; for Effect on nucleotide occlusion, wild-type TmrAB: CP^F 4 µM; for Occluded nucleotides, ADP / Occluded nucleotides, ATP: TmrAB 2 µM, CP^F 4 µM or orthovanadate 1 mM, ATP 1 mM traced with [α32P]-ATP, normalized to vanadate-trapped state
Procedure: (§1) Figure 5. […] (A, B) CP6^F (A) or CP13^F (B, 50 nM each) were incubated with increasing concentrations of detergent-solubilized inward-facing TmrAB (in the absence of Mg-ATP) or outward-facing TmrA^EQB, which was trapped with Mg-ATP (1 mM) for 5 min at 45°C as described ([Hofmann et al., 2019]; [Stefan et al., 2020]). Immediately after, the fluorescence anisotropy was assayed at λex/em = 485/520 nm. The difference in fluorescence polarization was normalized to free and fully bound CP^F. Data were fitted by a one-site binding model. […] TmrAB (2 µM each) were mixed with CP^Fs (4 µM), ATP (1 mM, traced with [α^32P]-ATP), and MgCl2 (5 mM) for 5 min at 4°C or 45°C. Cold ATP (10 mM) was added, and freely exchangeable nucleotides were removed by rapid gel filtration. Occluded nucleotides were analyzed by thin layer chromatography and autoradiography. Representative radiograms for independent triplicates are shown. (D) Stably occluded nucleotides, [α^32P]-ATP and [α^32P]-ADP, were quantified by autoradiography. Data were normalized to the vanadate-trapped state. In (A, B, D), mean values ± SD (n = 3) are shown. Figure 5—source data 1. Source Data for Figure 5. Figure 5—figure supplement 1. […] (A) CP^Fs (50 nM each) were incubated with increasing concentrations of detergent-solubilized IF TmrAB in the inward-facing (IF) conformation (absence of Mg-ATP) or TmrA^EQB populated in the outward-facing (OF) conformation, which was trapped in the OF conformation by Mg-ATP (1 mM) after 5 min incubation at 45°C. The difference in fluorescence polarization was normalized to unbound (0%) and 100% bound CP^F. Data were fitted by a one-site binding model. Fluorescence anisotropy was recorded at λex/em = 485/520 nm. […] TmrA^EQB (2 µM) were incubated in the absence and presence of CP^Fs (4 µM each), ATP (1 mM, traced with [α^32P]-ATP), and MgCl2 (5 mM) for 5 min at 4°C or 45°C. Cold ATP (10 mM) was added, and free nucleotides were removed by rapid gel filtration. Occluded nucleotides were analyzed by thin layer chromatography and autoradiography. Representative radiograms for independent triplicates are shown. […] Figure 5—figure supplement 1—source data 1.
(§2) We also examined the impact of CP^Fs on the IF-to-OF transition of wild-type TmrAB induced by ATP binding through nucleotide occlusion (stable trapping) as the readout. We induced the IF-to-OF switch with radiotraced [α^32P]-ATP for 5 min at 45°C in the presence and absence of CPs and removed unbound nucleotides by rapid gel filtration. Subsequently, the occluded nucleotides were identified and quantified by thin layer chromatography and autoradiography (Figure 5C, D).
Detergent-solubilized TmrAB (2 µM) were incubated with ATP (1 mM) traced with [α^32P]-ATP (Hartmann Analytic), MgCl2 (5 mM), CP^Fs (4 µM), or orthovanadate (1 mM) for 5 min at 45°C. Cold ATP (10 mM) was added, and unbound nucleotides were removed by rapid gel filtration (Bio-Spin columns P-30, Bio-Rad). ATP (10 mM) was added, and samples were spotted onto polyethyleneimine cellulose plates (Merck Millipore). Thin-layer chromatography was performed using 0.75 M KH2PO4 pH 3.4.

TmrA^EQB = experiment: Nucleotide occlusion, catalytically reduced variant; type: biochemical, Thermus thermophilus; conditions: CP^F 4 µM; 5 min 45°C
Procedure: as §1, §2
Detergent-solubilized TmrAB (2 µM) were incubated with ATP (1 mM) traced with [α^32P]-ATP (Hartmann Analytic), MgCl2 (5 mM), CP^Fs (4 µM), or orthovanadate (1 mM) for 5 min at 45°C. […]

[1] = test system: detergent-solubilized IF or OF TmrA^EQB; experiment: CP^F anisotropy with IF or OF TmrA^EQB under nucleotide conditions; type: binding, Thermus thermophilus; conditions: for Binding under nucleotide conditions: absence and presence of ATP and ADP
From the text: ABC transport complexes such as TmrAB run through multiple conformational states along the ATP hydrolysis cycle to drive unidirectional substrate transport ([Hofmann et al., 2019]; [Stefan et al., 2020]). Within the substrate translocation cycle, two major conformers, inward-facing (IF) and outward-facing (OF), were identified. To investigate whether CPs favor one of these conformers, we probed the binding of CP^Fs by fluorescence polarization analysis. […] In the latter case, the interaction studies were performed immediately after the IF-to-OF switch by incubation with ATP for 5 min at 45°C. To exclude an OF-to-IF return (τ1/2 of 25 min) ([Stefan et al., 2020]), the fluorescence anisotropy was recorded only within the first minute of incubation.
as §1
To determine equilibrium binding constants, CP^Fs (50 nM) were incubated with increasing concentrations of TmrAB-containing or empty liposomes. To probe the conformational selectivity, CP^Fs (50 nM) were mixed with detergent-solubilized IF TmrAB or OF TmrA^EQB. Before, OF TmrA^EQB was nucleotide-trapped by incubation with ATP (1 mM) and MgCl2 (3 mM) in the absence of CP^Fs for 5 min at 45°C.

[2] = TmrAB, 4 °C, CP^F 50 nM, TmrA^EQB 150 nM (CP6^F), 170 nM (CP12^F), 50 nM (CP13^F), 120 nM (CP14^F)
[3] = TmrAB, 45 °C, no nucleotide, CP^F 50 nM, TmrA^EQB 50-170 nM
[4] = TmrAB, ADP, 45 °C, CP^F 50 nM, TmrA^EQB 50-170 nM
[5] = TmrAB, ATP, 45 °C (OF), CP^F 50 nM, TmrA^EQB 50-170 nM
[6] = listed as 4 °C: CP^F 50 nM without TmrAB

SMILES | Effect on nucleotide occlusion, wild-type TmrAB (wild-type TmrAB) | Occluded nucleotides, ADP (wild-type TmrAB) | Occluded nucleotides, ATP (wild-type TmrAB) | Effect on ATP occlusion, TmrA^EQB (TmrA^EQB) | Bound CP^F, fluorescence anisotropy [1, 2] | Bound CP^F, fluorescence anisotropy [1, 3] | Bound CP^F, fluorescence anisotropy [1, 4] | Bound CP^F, fluorescence anisotropy [1, 5] | Binding under nucleotide conditions [1] | Bound CP^F, fluorescence anisotropy [1, 6]
CC(C)C[C@@H]1NC(=O)[C@H](Cc2ccccc2)NC(=O)CNC(=O)[C@H](CO)NC(=O)[C@H](Cc2ccccc2)NC(=O)[C@H](CC(=O)O)NC(=O)[C@@H]2CCCN2C(=O)[C@H]([C@@H](C)O)NC(=O)[C@@H](Cc2ccc(O)cc2)NC(=O)CSC[C@@H](C(=O)NCC(=O)N[C@@H](CO)C(=O)NCCC(=O)NCCC(=O)N[C@@H](CCCNC(=N)N)C(=O)N[C@@H](CCCCNC(=O)c2ccc3c(c2)C(=O)OC32c3ccc(O)cc3Oc3cc(O)ccc32)C(N)=O)NC(=O)[C@H](C)NC(=O)[C@H](CC(N)=O)NC(=O)[C@H](CCCNC(=N)N)NC(=O)[C@H](CC(C)C)NC(=O)[C@H](Cc2ccccc2)NC(=O)[C@H](C)NC1=O [CP12] ({CH2CO}-[dY]TPDFSGFLAFLRNACGS[βAla][βAla]RK(5FAM)-NH2; thioether N-16) | nucleotide occlusion was completely abolished | 3.67% | 7.52% | inhibited ATP occlusion | 0.127 | 0.130 | 0.122 | 0.069 | preferentially bind under conditions where IF TmrAB is exclusively populated | 0.023
CC[C@H](C)[C@@H]1NC(=O)[C@H]([C@@H](C)O)NC(=O)[C@H](CC(C)C)NC(=O)[C@H](Cc2c[nH]c3ccccc23)NC(=O)[C@H](Cc2ccccc2)NC(=O)[C@H](CC(N)=O)NC(=O)[C@H](CCC(=O)O)NC(=O)[C@H](CC(C)C)NC(=O)[C@H](CS)NC(=O)[C@H](Cc2c[nH]cn2)NC(=O)[C@H](CO)NC(=O)[C@@H](Cc2ccc(O)cc2)NC(=O)CSC[C@@H](C(=O)NCC(=O)N[C@@H](CO)C(=O)NCCC(=O)NCCC(=O)N[C@@H](CCCNC(=N)N)C(=O)N[C@@H](CCCCNC(=O)c2ccc3c(c2)C(=O)OC32c3ccc(O)cc3Oc3cc(O)ccc32)C(N)=O)NC(=O)[C@H](CC(C)C)NC1=O [CP6] ({CH2CO}-[dY]SHCLENFWLTILCGS[βAla][βAla]RK(5FAM)-NH2; thioether N-14) | nucleotide occlusion was completely abolished | 2.66% | 6.76% | inhibited ATP occlusion | 0.143 | 0.132 | 0.129 | 0.050 | preferentially bind under conditions where IF TmrAB is exclusively populated | 0.019
CC[C@H](C)[C@@H]1NC(=O)[C@H](Cc2c[nH]c3ccccc23)NC(=O)[C@H](CC(N)=O)NC(=O)[C@H](C)NC(=O)[C@H](CO)NC(=O)[C@@H]2CCCN2C(=O)[C@H](CC(=O)O)NC(=O)[C@@H](Cc2ccc(O)cc2)NC(=O)CSC[C@@H](C(=O)NCC(=O)N[C@@H](CO)C(=O)NCCC(=O)NCCC(=O)N[C@@H](CCCNC(=N)N)C(=O)N[C@@H](CCCCNC(=O)c2ccc3c(c2)C(=O)OC32c3ccc(O)cc3Oc3cc(O)ccc32)C(N)=O)NC(=O)[C@H]([C@@H](C)O)NC(=O)[C@H](CC(C)C)NC(=O)[C@H](CC(C)C)NC(=O)[C@H](C(C)C)NC(=O)[C@H](CC(C)C)NC1=O [CP13] ({CH2CO}-[dY]DPSANWILVLLTCGS[βAla][βAla]RK(5FAM)-NH2; thioether N-14; C-terminus assumed) | promoted stable ATP occlusion | 10.47% | 55.84% | ATP is occluded in the presence or absence | 0.055 | 0.051 | 0.050 | 0.048 | bind in the absence and presence of ATP and ADP | 0.023
CC(C)[C@@H]1NC(=O)[C@H](Cc2ccccc2)NC(=O)[C@@H]2CCCN2C(=O)[C@H](CC(N)=O)NC(=O)[C@H](Cc2c[nH]c3ccccc23)NC(=O)[C@H](C(C)C)NC(=O)[C@H](Cc2ccc(O)cc2)NC(=O)[C@H](Cc2ccccc2)NC(=O)[C@@H](Cc2ccc(O)cc2)NC(=O)CSC[C@@H](C(=O)NCC(=O)N[C@@H](CO)C(=O)NCCC(=O)NCCC(=O)N[C@@H](CCCNC(=N)N)C(=O)N[C@@H](CCCCNC(=O)c2ccc3c(c2)C(=O)OC32c3ccc(O)cc3Oc3cc(O)ccc32)C(N)=O)NC(=O)[C@H](CCCCN)NC(=O)[C@H](Cc2ccccc2)NC1=O [CP14] ({CH2CO}-[dY]FYVWNPFVFKCGS[βAla][βAla]RK(5FAM)-NH2; thioether N-12; C-terminus assumed) | promoted stable ATP occlusion | 8.19% | 88.51% | ATP is occluded in the presence or absence | 0.134 | 0.132 | 0.131 | 0.127 | bind in the absence and presence of ATP and ADP | 0.023
